# Experiments:
# [1] = system: experimental allergic encephalomyelitis (EAE) in DA rats; experiment: Treatment of EAE in DA rats with liposomally encapsulated MBP peptides (Example 5); type: in vivo; settings: 150 μg per animal daily subdermally days 6-11, score 0-5
# Protocol: To induce experimental allergic encephalomyelitis (EAE) in DA rats having a mass of 220-250 g ([…]), 10 μg of myelin basic protein encephalogenic peptide fragment ARTTHYGSLPQKSQRSQ (SEQ ID NO:4; Anaspec, US) emulsified in Freund's complete adjuvant (Difco, US) at a concentration of 10% (m/v) was subdermally injected into the forepaw. The rats were weighted and monitored for EAE neurological symptoms daily. The EAE symptom profile of each rate was scored according to the following scale: (0)—absence of EAE symptoms; (1)—decrease in tail tonicity; (2)—decrease in righting reflex; (3)—paresis; (4)—full paralysis; and (5)—agony or death. Intermediary symptoms were scored by increasing or decreasing the value by 0.5 units. Six days after EAE induction, animals were randomly distributed into several groups (12 animals each).
# Between days six and eleven after induction, rats in each respective group were subdermally injected with the liposomal preparation described in Example 2 (emulsified in phosphate saline solution, pH 7.4), a positive control preparation of glatiramer acetate (GA; copaxone, Teva Pharmaceutical Industries Ltd, Israel), a prototype peptide: DENPVVIIFFKNIVTPRT (SEQ ID NO:5), or a buffered phosphate saline solution (pH 7.4) placebo. The peptide, Glatiramer acetate, and liposomal preparations were formulated immediately prior to administration using buffered phosphate saline solution (pH 7.4). 0.1 mL of each composition was administered daily at a concentration of 150 μg per animal.
# [2] = system: EAE-induced DA rats; experiment: EAE-induced DA rat model, paralysis score and mortality (DA-EAE-28-01, Example 12); type: in vivo; settings: 54 EAE induced DA rats; daily s.c. injection, 6 total; peptide dose 50 μg (mixtures 150 μg); deaths/N
# Protocol: Each of the seven formulations being evaluated was provided as a lyophilized powder and stored at 4° C. Rehydration of each daily group dose was done with water for injection according to Table 6. MBP peptide formulations were re-suspended in water for injection (Cure Medical) and copaxone (Teva LTD) was diluted with Saline to a final concentration of 150 μg/mL. Each subject animal was administered the test formulation for 6 consecutive days by subcutaneous injection.
# 9 week old Dark Agouti (DA) female rats (Harlan Laboratories, Inc.), weighing between 125 and 145 grams were used as the test subjects. The health status of the animals used in this study was examined on arrival. Only animals in good health were acclimatized to laboratory conditions and were used in the study. Animals were provided Protein Rodent Diet (Teklad) ad libitum and free access to drinking water. Animals were housed in a controlled environment at between 20° C. and 24° C. with a relative humidity of 30-70% and a 12 hr light/12 hr dark cycle. Animals were randomly assigned to their respective test group. This study was performed following the review by the Committee for Ethical Conduct in the Care and Use of Laboratory Animals of the Assaf Harofeh medical center, Beer Yaakov, Ethical Committee number: 68/2009.
# For induction of EAE, rats were intradermally injected at the base of the tail with a total volume of 200 μl of inoculum containing 50 μg of MBP(63-81) (ANASPEC), in saline mixed (1:1) with CFA, (IFA, Sigma) and 1 mg Mt (strain H37 RA; Difco Laboratories, Detroit, Mich.).
# The rats were evaluated up daily starting 24 hours after immunization. […]
# 7-10 days post EAE induction, 54 animals were divided to 9 groups (6 rats in each), and blood was collected from 2 rats of each group before the initiation of the treatment. […] The animals were maintained and evaluated until day 28th post EAE-induction. […]
# Animals were observed individually and clinical signs were recorded once daily during all study periods. […] The body weight of each animals was determined daily during all study periods. […]
substance,measurement,setting,value
glatiramer acetate [copaxone],"Evaluation of EAE symptom intensity, average",[1]; day 0 after EAE induction,0.00
same,"Evaluation of EAE symptom intensity, average",[1]; day 1 after EAE induction,0.00
same,"Evaluation of EAE symptom intensity, average",[1]; day 2 after EAE induction,0.00
same,"Evaluation of EAE symptom intensity, average",[1]; day 3 after EAE induction,0.00
same,"Evaluation of EAE symptom intensity, average",[1]; day 4 after EAE induction,0.00
same,"Evaluation of EAE symptom intensity, average",[1]; day 5 after EAE induction,0.00
same,"Evaluation of EAE symptom intensity, average",[1]; day 6 after EAE induction,0.00
same,"Evaluation of EAE symptom intensity, average",[1]; day 7 after EAE induction,0.00
same,"Evaluation of EAE symptom intensity, average",[1]; day 8 after EAE induction,0.50
same,"Evaluation of EAE symptom intensity, average",[1]; day 9 after EAE induction,1.67
same,"Evaluation of EAE symptom intensity, average",[1]; day 10 after EAE induction,2.17
same,"Evaluation of EAE symptom intensity, average",[1]; day 11 after EAE induction,2.25
same,"Evaluation of EAE symptom intensity, average",[1]; day 12 after EAE induction,2.25
same,"Evaluation of EAE symptom intensity, average",[1]; day 13 after EAE induction,2.83
same,"Evaluation of EAE symptom intensity, average",[1]; day 14 after EAE induction,2.75
same,"Evaluation of EAE symptom intensity, average",[1]; day 15 after EAE induction,2.33
same,"Evaluation of EAE symptom intensity, average",[1]; day 16 after EAE induction,2.08
same,"Evaluation of EAE symptom intensity, average",[1]; day 17 after EAE induction,2.17
same,"Evaluation of EAE symptom intensity, average",[1]; day 18 after EAE induction,2.17
same,"Evaluation of EAE symptom intensity, average",[1]; day 19 after EAE induction,1.75
same,"Evaluation of EAE symptom intensity, average",[1]; day 20 after EAE induction,1.67
same,"Evaluation of EAE symptom intensity, average",[1]; day −1 after EAE induction,0.00
same,Mortality Rate,[2],2/6
